Data set [1] concerns the target T1, Trace amine-associated receptor 1 (Homo sapiens, UniProt Q96RJ0).
T1 sequence (Q96RJ0 whole entry): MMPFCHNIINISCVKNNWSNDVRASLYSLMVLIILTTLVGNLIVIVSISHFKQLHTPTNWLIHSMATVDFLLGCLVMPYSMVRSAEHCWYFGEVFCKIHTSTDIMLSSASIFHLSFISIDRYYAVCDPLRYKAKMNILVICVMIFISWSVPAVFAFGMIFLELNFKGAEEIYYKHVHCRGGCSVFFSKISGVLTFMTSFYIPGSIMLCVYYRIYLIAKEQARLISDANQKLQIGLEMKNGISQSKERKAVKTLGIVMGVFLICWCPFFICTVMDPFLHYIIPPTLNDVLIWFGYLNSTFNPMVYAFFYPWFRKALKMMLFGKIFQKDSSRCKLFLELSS
In words: Agonist activity at human TAAR1 stably expressed in HEK293 cells incubated for 30 mins by cAMP assay. The format is functional, cell-based.

Data set [2] deals with Trace amine-associated receptor 1 (Rattus norvegicus, UniProt Q923Y9). The experiment in a line: Agonist activity at rat TAAR1 stably expressed in HEK293 cells incubated for 30 mins by cAMP assay. The format is functional, cell-based. (Cyclic AMP is a second messenger, typically raised through Gs and lowered through Gi signalling.)
Data set [3] addresses Trace amine-associated receptor 1 (Mus musculus, UniProt Q923Y8). The experiment in a line: Agonist activity at mouse TAAR1 stably expressed in HEK293 cells incubated for 30 mins by cAMP assay. The format is functional, cell-based.
Data set [4] in a line: Acute toxicity in iv dosed mouse assessed as lethal dose incubated for 72 hrs. The format is organism-based. The conditions noted are these: in vivo.
Data set [5] is described as follows: Acute toxicity in ip dosed mouse assessed as lethal dose incubated for 24 hrs. Type of data set: organism-based. The conditions noted are these: in vivo.
A short description of data set [6]: Acute toxicity in po dosed mouse assessed as lethal dose incubated for 72 hrs. Type of data set: organism-based. The conditions noted are these: in vivo.
Data set [7] is described as follows: Drug tolerance in sc dosed dog. The format is toxicity, organism-based, Canis lupus familiaris. The conditions noted are these: in vivo.
Data set [8] addresses Sigma non-opioid intracellular receptor 1 (Homo sapiens, UniProt Q99720). The experiment in a line: Binding affinity to sigma 1 receptor (unknown origin) assessed as dissociation constant by competitive binding assay.
Data set [9] has as its target Sigma intracellular receptor 2 (Homo sapiens, UniProt Q5BJF2). In words: Binding affinity to sigma 2 receptor (unknown origin) assessed as dissociation constant by competitive binding assay.

Data on 3 compounds can be found in ChEMBL document CHEMBL5149999, “The Alkaloids from Lophophora diffusa and Other "False Peyotes"” (J Nat Prod, 2021).

One may read the EC50 as the concentration needed to bring the measured effect to its halfway point. Low values mean a more potent agent, high ones a less potent agent. As usually defined, the LD50 is the dose at which mortality reaches 50%. A word on the Kd: it is the free concentration of one partner at which half of the binding sites on the other are occupied at equilibrium, for simple one-to-one binding.

Chain of Trace amine-associated receptor 1 (Rattus norvegicus, UniProt Q923Y9) (Q923Y9 whole entry): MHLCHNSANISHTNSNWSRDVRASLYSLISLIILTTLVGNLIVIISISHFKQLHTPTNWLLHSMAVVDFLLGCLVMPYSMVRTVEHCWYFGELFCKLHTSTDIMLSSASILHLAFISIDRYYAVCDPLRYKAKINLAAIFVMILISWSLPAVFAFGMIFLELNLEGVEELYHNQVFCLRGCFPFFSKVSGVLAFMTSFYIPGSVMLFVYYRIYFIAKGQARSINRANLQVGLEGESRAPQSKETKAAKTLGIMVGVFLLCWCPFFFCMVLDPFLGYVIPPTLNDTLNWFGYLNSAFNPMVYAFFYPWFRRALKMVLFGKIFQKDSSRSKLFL
Chain of Sigma non-opioid intracellular receptor 1 (Q99720 whole entry): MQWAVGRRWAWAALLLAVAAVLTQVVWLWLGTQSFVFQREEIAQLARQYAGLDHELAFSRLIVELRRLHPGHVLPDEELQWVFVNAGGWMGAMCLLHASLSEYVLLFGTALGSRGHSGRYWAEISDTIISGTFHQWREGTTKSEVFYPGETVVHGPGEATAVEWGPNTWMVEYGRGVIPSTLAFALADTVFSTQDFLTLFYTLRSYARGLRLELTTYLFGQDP
Chain of Sigma intracellular receptor 2 (Q5BJF2 whole entry): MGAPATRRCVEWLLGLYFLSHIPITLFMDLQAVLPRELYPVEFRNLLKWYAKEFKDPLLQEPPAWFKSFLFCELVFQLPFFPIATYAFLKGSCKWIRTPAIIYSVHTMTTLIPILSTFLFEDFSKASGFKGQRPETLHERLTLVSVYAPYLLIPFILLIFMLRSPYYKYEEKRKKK
Chain of Trace amine-associated receptor 1 (Mus musculus, UniProt Q923Y8) (Q923Y8 whole entry): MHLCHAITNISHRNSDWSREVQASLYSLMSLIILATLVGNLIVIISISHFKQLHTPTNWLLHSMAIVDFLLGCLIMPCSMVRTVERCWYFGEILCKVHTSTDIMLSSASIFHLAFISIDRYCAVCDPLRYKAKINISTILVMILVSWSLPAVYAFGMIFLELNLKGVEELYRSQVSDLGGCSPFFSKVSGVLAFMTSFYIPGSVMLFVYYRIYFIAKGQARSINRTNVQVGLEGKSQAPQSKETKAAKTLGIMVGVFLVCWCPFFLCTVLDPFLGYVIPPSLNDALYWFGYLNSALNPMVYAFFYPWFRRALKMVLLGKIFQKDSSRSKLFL

`NCCc1ccc(O)cc1` [TYRAMINE]: the values for the EC50 in data set [1], in data set [2] and in [3] were 990 nM, 30 nM and 280 nM, respectively.

`COc1cc2c(c(O)c1OC)C(C)N(C)CC2` (centres undefined): the LD50 at 72 h came out at 52.2 mg/kg in [4] and 200 mg/kg in data set [6]. In [5], the 50% lethal dose (LD50) at 24 h was 115 mg/kg. The compound also yielded an Activity in data set [7] of 50 mg/kg.

As for `CNCCc1ccc(O)cc1`, the Kd amounted to 12400 nM in data set [8] and 6600 nM in [9].
